How the values were obtained:
[1] = Hydrogelation / self-assembly under physiological conditions; type: physicochemical; conditions: for hydrogel formation: 1 wt.% (ca. 15 mM), pH 7.4; for Tgel-sol: hydrogel
Source text: (§1) For biomedical applications, the self-assembly properties of Ben-IKVAV and PFB-IKVAV were investigated under physiological conditions. […] The corresponding microscopic morphologies were examined by transmission electron microscopy (TEM). […] The nanofibers are intertwined to form fiber bundles with a width of about 17 ± 1 nm. In contrast, PFB-IKVAV produces short nanofibers (diameter around 10 ± 1 nm). These fibrous nanostructures are distributed in water and entangled within a highly organized peptide-amphiphile nanofibers network (i.e., Ben-IKVAV and PFB-IKVAV), allowing for the formation of stable hydrogels. Moreover, the Tgel-sol of Ben-IKVAV and PFB-IKVAV were 65 and 55 °C, respectively. […] Furthermore, the self-assembly of Ben-IKVAV and PFB-IKVAV are viscoelastic gels, because the values of the G′ are higher than those of the loss modulus (G″) in both gels.

[2] = Oscillatory rheology of the hydrogels; type: physicochemical; conditions: 1 wt.%, pH 7.4, oscillatory rheology, ω = 0.1–100 rad·s^−1
Source text: as §1
Figure 3 Frequency-dependent (ω = 0.1–100 rad·s^−1) rheological measurement of Ben-IKVAV (circle) and PFB-IKVAV (square) at a concentration of 1 wt.% under pH 7.4 (solid for G′ and open for G′′).

[3] = system: hMSCs; experiment: Neural differentiation of hMSCs in neural induction medium (cell morphology, neurite outgrowth); type: cell-based, human; conditions: 1000 μM in NIM; for differentiation of hMSCs into neuron-like cells: cultured 0, 2 and 7 days; for cell morphology and axon extension length (average neurite outgrowth length) versus NIM control: days 2 and 7, n = 50
Procedure: Since Ben-IKVAV and PFB-IKVAV are biocompatible, we then diluted 1 wt.% of Ben-IKVAV and PFB-IKVAV hydrogels with basal medium and neural induction medium (NIM) to 1000 μM, respectively, and cultured them with hMSCs for 0, 2, and 7 days (Figure S2 and Figure 7). […] The fibrous structures of Ben-IKVAV or PFB-IKVAV scattered in the culture medium (NIM) are combined with cell surface receptors to promote neural differentiation. To understand the effect of neural differentiation of hMSCs, the average neurite outgrowth lengths on days 2 and 7 were measured in the control and experimental groups (i.e., Ben-IKVAV in NIM and PFB-IKVAV in NIM).
The hMSCs were grown in 24-well plates (density: 2.4 × 10^5 cells per well) in NIM supplemented with 1% penicillin/streptomycin, 10^−7 M dexamethasone, 50 μg/mL L-Ascorbic acid-2 phosphate, 50 μM indomethacin, 10 μg/mL insulin, and 0.45 mM 3-isobutyl-1-methyl-xanthine. The cells cultured in a basal medium were used as a negative control.

[4] = Thioflavin T (ThT) fluorescence assay for fibrillar peptide structures; type: physicochemical; conditions: ratio of ThT emission intensities (I0: without adding hydrogelators), emission at 484 nm
Source text: (§2) Since Ben-IKVAV and PFB-IKVAV could self-assemble to form the network of nanofibers and afford the hydrogels, we further studied the driving force for the intermolecular interactions of the hydrogelators using spectroscopic characterization. […] The UV-vis absorption and circular dichroism (CD) spectra of Ben-IKVAV and PFB-IKVAV in water and methanol are presented in Figure 4. The absorption peaks of Ben-IKVAV are at 262 nm and 254 nm in water and methanol, respectively, indicating the redshift feature caused by the aggregation formation in an aqueous solution. […] CD spectra were recorded to understand the structural properties and molecular arrangement of Ben-IKVAV and PFB-IKVAV (Figure 4C,D). At low concentrations of Ben-IKVAV and PFB-IKVAV (50 and 500 μM) in water, no CD signals were detected in the wavelength region 190–350 nm. […] In addition, Fourier-transform infrared spectroscopy (FT-IR) was employed to verify the hydrogen interactions between molecules in the self-assembled state. […] Since thioflavin T (ThT) is a well-known fluorescent dye utilized to identify the presence of amyloid fibrils, we used the ThT fluorescence assay to further confirm the fibrillar peptide structures present in Ben-IKVAV and PFB-IKVAV. It is known that when ThT binds to β-amyloid fibrils, a remarkable enhancement in fluorescence intensity can be detected at 484 nm. […]

[5] = Concentration-dependent circular dichroism in water; type: physicochemical; conditions: CD: no signal at 50 and 500 μM, Cotton effect at 1000 μM
Source text: as §2

[6] = Negatively stained TEM of the hydrogels; type: physicochemical; conditions: 1 wt.%, pH 7.4
Source text: as §1
Figure 2 Optical (insets) and negatively stained TEM images of (A) Ben-IKVAV and (B) PFB-IKVAV at a concentration of 1 wt.% under pH 7.4. (Scale bar: 100 nm).

[7] = system: hMSCs; experiment: MTT cell viability test; type: cell-based, human; conditions: for cell viability: 500 μM, 48 h, ODsample/ODcontrol; for IC50: 10–500 μM, 24 and 48 h, read-out: half-inhibitory concentration (IC50)
Procedure: To evaluate the potential biological applications of Ben-IKVAV and PFB-IKVAV, we performed a biocompatibility test of these hydrogelators against hMSCs through MTT [3-(4,5-dimethylthiazol-2-yl)-2,5-diphenyltetrazolium bromide] assay, and the results are presented in Figure 6. The concentrations of Ben-IKVAV and PFB-IKVAV were selected in the range of 10–500 μM, and the cell viability measurements were processed at 24 and 48 h after cell seeding.
The biocompatibilities of Ben-IKVAV and PFB-IKVAV were measured by the MTT cell viability test. The hMSCs were seeded in 24-well plates (density: 50,000 cells per well) with Dulbecco’s modified Eagle’s medium (DMEM, 0.5 mL) containing 10% […] and 1% penicillin/streptomycin solution and then incubated for 24 h. Compounds of Ben-IKVAV and PFB-IKVAV at different concentrations (10, 50, 100, 200, and 500 µM) were added when cells were plated. After 24 and 48 h, the medium was replaced with fresh medium supplemented with MTT reagent (4 mg mL^–1, 0.5 mL per well). After another 4 h, the medium containing MTT was removed, and DMSO (0.5 mL per well) was added to dissolve the formazan crystals. Each of the 24 wells was transferred to a 96-well plate. The optical densities (ODs) of the resulting solutions were measured at 595 nm using an absorbance microplate reader (Infinite F50, TECAN, Männedorf, Switzerland). Cells that had not been subjected to treatment with the compounds were used as the control. The cell viability percentage (%) was calculated from the expression ODsample/ODcontrol.

[8] = system: MAP2 in hMSCs; experiment: Immunofluorescent staining for neuronal-specific marker MAP2; type: cell-based, human; conditions: neural induction medium in the presence of the peptide, day 7
Source text: After neuronal inductions of hMSCs, immunofluorescent staining for neuronal-specific markers of β-tubulin and MAP2 was achieved. Figure 10 presents immunostaining for β-tubulin (green) with DAPI (blue) co-staining in hMSCs cultured with NIM (control), NIM in the presence of Ben-IKVAV, and NIM in the presence of PFB-IKVAV for days 1, 2, and 7. It can be seen that there is no β-tubulin stained on day 1. […] On the 7th day of culture, a more evident increase of β-tubulin was observed. […] It is speculated that the nuclear entry may be related to the initiation of the regulation of the gene level in the nucleus to make the differentiation more complete. […] After 7 days of differentiation, the cells gradually tended to mature nerve cells. Among these materials, PFB-IKVAV is the best one for helping cell differentiation.
After neuronal inductions of hMSCs, immunostaining was performed for neuronal-specific markers. Cells were fixed with 4% formaldehyde for 15 min and permeabilized with PBST buffer (0.1% Triton X-100 supplemented with BSA). After permeabilization, cells were blocked with Blocking buffer (PBST buffer + 5% serum) for 30 min and then incubated with primary antibodies β-tubulin (1:100) and MAP2 (1:200) at 4 °C overnight. […] Finally, cells were observed under a fluorescence microscope.

[9] = system: hMSCs; experiment: RT-qPCR analysis of neuronal-specific markers (Nestin, β-tubulin, SNCA, MAP2); type: cell-based, human; conditions: 1000 µM in NIM
Procedure: To investigate whether IKVAV derivatives can effectively promote the differentiation of stem cells into neural cells, we diluted 1 wt.% of Ben-IKVAV and PFB-IKVAV hydrogels with NIM to 1000 µM, respectively, and cultured hMSCs for 0, 2, and 7 days. The mRNA was collected from NIM, NIM in the presence of Ben-IKVAV, and NIM in the presence of PFB-IKVAV and subjected to real-time quantitative polymerase chain reaction (RT-qPCR) analysis. The expression of neuronal-specific markers, Nestin, β-tubulin, SNCA, and MAP2 are analyzed in this work.
Total RNA was isolated from the control and induced (Neurogenic) hMSCs and quantified with a spectrophotometer (NanoPhotometer™ Pearl Design Edition, Westlake Village, CA, USA). Complementary DNA (cDNA) was synthesized from the total purified RNA (1 μg) using a MMLV High-Performance Reverse Transcriptase kit with a 10 μM OligodT primer at 37 °C for 1 h. […] The RT-qPCR reaction was carried out with initial denaturation at 95 °C for 10 min, followed by 40 cycles of PCR at 95 °C for 15 s, and 60 °C for 60 s.

[10] = not given; remark: listed apart in the source
[11] = not given; remark: listed apart in the source
[12] = not given; remark: listed apart in the source

Substance	hydrogel formation [1]	Tgel-sol [1]	storage modulus (G′) [2]	differentiation of hMSCs into neuron-like cells [3]	cell morphology and axon extension length (average neurite outgrowth length) versus NIM control [3]	ThT fluorescence enhancement ratio [4]	concentration at which the peptide self-assembles into high-order supramolecular structures [5]	nanofiber diameter [6]	width of fiber bundles [6]	cell viability [7]	IC50 [7]	immunofluorescent staining for MAP2 relative to neural induction medium (control) [8]	cell differentiation ability (comparison of the two peptides) [9]	FT-IR absorption peak (hydrogen bonding)	new absorption band in water [10]	absorption peak in methanol [11]	absorption peak in water [12]
phenyl-capped Ile-Lys-Val-Ala-Val [Ben-IKVAV, phenyl-capped pentapeptide; IKVAV N-terminally coupled with 2-phenylacetic acid; hydrogelator]	form white translucent hydrogels	65 °C	32.0 kPa	could successfully differentiate hMSCs into neuron-like cells	no significant difference	140	higher than 1000 μM	4 ± 2 nm	about 17 ± 1 nm	over 75%	> 500 µM						
perfluorophenyl-capped Ile-Lys-Val-Ala-Val [PFB-IKVAV, IKVAV N-terminally coupled with 2-(perfluorophenyl)acetic acid; hydrogelator]	form white translucent hydrogels	55 °C	2.4 kPa	could successfully differentiate hMSCs into neuron-like cells	no significant difference	210	higher than 1000 μM	around 10 ± 1 nm		over 75%	> 500 µM	4.6 times	better cell differentiation ability than Ben-IKVAV				
perfluorophenyl-capped Ile-Lys-Val-Ala-Val														1630 cm⁻¹	285 nm		
phenyl-capped Ile-Lys-Val-Ala-Val														1630 cm⁻¹		254 nm	262 nm
